Results: ChEMBL document CHEMBL5360657, “Discovery of the TLR7/8 Antagonist MHV370 for Treatment of Systemic Autoimmune Diseases” (ACS Med Chem Lett, 2023)

Columns and labels:
[1] = Volume of distribution at steady state in mouse at 3 mg/kg, iv; format: ADME, organism-based; conditions: in vivo, read-out: Vdss
Cytochrome P450 2D6 = Cytochrome P450 2D6 (Homo sapiens, UniProt P10635); assay: Inhibition of CYP2D6 (unknown origin); format: ADME
[2] = molecular target: T1, Nuclear receptor subfamily 1 group I member 2 (Homo sapiens, UniProt O75469); assay: Induction of PXR (unknown origin) relative to control
T1 sequence (O75469 whole entry): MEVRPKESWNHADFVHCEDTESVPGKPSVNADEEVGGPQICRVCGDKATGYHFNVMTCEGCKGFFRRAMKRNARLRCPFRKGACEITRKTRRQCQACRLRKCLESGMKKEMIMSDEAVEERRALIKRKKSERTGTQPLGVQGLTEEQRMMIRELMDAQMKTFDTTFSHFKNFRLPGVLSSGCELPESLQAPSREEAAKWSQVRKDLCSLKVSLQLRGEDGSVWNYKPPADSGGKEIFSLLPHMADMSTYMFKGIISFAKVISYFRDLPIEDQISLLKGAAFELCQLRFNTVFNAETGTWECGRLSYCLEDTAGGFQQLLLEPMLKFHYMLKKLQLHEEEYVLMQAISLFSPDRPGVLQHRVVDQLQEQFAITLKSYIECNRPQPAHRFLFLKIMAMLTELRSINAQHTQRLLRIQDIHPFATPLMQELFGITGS

[3] = Cmax in mouse at 3 mg/kg, iv; format: ADME, organism-based; design: dose 3 mg/kg, route iv; conditions: in vivo
[4] = Oral bioavailability in mouse at 20 mg/kg; format: ADME, organism-based; conditions: in vivo
Toll-like receptor 9 = molecular target: T2, Toll-like receptor 9 (Homo sapiens, UniProt Q9NR96); assay: Antagonist activity at TLR9 in human Whole blood cell assessed as reduction in IFN-alpha level measured after 30 mins; format: tissue-based
T2 sequence (Q9NR96 whole entry): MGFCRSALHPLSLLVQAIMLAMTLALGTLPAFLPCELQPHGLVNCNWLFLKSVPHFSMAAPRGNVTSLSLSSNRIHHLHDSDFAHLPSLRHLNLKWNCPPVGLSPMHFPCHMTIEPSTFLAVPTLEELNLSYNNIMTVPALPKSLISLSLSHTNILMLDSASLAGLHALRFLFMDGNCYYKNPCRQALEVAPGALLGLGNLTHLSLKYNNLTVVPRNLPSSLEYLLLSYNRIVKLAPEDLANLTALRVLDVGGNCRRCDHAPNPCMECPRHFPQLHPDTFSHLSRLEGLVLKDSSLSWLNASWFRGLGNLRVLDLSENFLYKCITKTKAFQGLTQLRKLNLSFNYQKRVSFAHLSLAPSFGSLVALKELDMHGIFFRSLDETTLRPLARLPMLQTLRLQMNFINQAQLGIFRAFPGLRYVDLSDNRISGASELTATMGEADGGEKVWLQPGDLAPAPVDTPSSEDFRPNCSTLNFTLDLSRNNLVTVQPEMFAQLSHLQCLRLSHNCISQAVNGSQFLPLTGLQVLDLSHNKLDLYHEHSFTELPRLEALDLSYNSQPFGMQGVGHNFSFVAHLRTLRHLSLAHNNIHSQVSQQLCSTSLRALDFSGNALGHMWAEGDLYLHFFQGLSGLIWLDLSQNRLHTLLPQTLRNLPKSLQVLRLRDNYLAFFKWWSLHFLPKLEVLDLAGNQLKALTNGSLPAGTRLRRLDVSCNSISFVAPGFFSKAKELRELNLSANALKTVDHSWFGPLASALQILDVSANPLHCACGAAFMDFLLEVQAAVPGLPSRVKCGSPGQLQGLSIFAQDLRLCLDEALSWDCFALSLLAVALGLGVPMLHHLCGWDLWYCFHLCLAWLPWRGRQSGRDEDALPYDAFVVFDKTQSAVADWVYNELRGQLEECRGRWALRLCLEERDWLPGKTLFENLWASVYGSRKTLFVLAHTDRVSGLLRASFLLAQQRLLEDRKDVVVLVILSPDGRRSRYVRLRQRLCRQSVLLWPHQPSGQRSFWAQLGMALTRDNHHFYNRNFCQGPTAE

Toll-like receptor 8 = molecular target: T3, Toll-like receptor 8 (Homo sapiens, UniProt Q9NR97); assay: Antagonist activity at TLR8 in human Whole blood cell […] assessed as reduction in IL-6 level measured after 30 mins; format: tissue-based
T3 sequence (Q9NR97 whole entry): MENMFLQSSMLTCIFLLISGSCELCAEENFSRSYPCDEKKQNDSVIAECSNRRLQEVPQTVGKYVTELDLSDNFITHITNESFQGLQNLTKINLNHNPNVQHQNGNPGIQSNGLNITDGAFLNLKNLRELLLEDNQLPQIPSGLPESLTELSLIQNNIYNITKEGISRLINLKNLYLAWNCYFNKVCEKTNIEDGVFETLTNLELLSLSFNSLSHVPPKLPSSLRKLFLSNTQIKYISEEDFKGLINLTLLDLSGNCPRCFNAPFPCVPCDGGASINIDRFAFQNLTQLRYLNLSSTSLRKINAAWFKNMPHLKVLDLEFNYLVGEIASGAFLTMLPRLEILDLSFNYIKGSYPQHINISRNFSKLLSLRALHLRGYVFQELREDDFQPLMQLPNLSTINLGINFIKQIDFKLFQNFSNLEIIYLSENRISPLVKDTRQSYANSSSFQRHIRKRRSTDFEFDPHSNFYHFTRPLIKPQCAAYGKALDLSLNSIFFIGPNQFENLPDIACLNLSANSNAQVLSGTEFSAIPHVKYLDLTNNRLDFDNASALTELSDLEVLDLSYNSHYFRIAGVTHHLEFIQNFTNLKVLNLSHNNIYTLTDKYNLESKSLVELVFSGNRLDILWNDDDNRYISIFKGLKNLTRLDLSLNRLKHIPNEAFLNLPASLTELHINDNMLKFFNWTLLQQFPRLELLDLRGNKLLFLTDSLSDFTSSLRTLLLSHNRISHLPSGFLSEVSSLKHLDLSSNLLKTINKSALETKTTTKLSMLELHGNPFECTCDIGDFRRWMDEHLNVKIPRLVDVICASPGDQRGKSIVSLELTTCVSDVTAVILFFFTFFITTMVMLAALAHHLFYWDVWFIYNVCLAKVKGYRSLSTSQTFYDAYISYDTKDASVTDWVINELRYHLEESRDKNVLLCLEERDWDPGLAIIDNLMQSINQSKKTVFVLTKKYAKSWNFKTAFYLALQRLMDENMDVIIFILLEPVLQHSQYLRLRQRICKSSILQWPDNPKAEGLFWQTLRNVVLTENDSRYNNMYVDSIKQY

[5] = molecular target: Toll-like receptor 7 (Mus musculus) (UniProt P58681); assay: In vivo antagonist activity against TLR7 in po dosed mouse assessed as suppression of IL-6 level measured at 3 hrs by LC-MS/MS analysis; conditions: dose 1-30 mg/kg
[6] = molecular target: Toll-like receptor 7 (Mus musculus) (UniProt P58681); assay: In vivo antagonist activity against TLR7 in po dosed mouse assessed as suppression of TNF level measured at 3 hrs by LC-MS/MS analysis; conditions: dose 1-30 mg/kg

Cytochrome P450 2D6, sequence (P10635 whole entry): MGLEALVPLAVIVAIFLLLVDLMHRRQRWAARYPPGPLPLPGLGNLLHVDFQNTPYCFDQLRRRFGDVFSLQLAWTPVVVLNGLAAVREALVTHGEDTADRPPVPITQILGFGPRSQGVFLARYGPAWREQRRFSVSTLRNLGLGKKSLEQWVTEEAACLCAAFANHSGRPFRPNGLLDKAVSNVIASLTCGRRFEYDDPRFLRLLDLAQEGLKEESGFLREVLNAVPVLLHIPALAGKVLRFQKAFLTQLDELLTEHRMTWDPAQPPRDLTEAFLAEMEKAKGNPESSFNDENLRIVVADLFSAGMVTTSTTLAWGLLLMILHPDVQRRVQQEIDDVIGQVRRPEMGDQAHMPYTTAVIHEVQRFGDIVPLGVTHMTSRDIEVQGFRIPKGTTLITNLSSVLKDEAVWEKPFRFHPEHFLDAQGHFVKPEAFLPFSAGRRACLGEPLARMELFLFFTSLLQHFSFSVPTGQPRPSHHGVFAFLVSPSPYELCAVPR

Vd [1] [L/kg] | IC50 (Cytochrome P450 2D6) [µM] | Activity [2] [%] | Cmax [3] [nM] | bioavailability [4] [%] | Compound | IC50 (Toll-like receptor 9) [µM] | IC50 (Toll-like receptor 8) [µM] | Activity [5] | Activity [6]
4.1 | > 25 | 7.9 | 321 | 4 | Cc1cc(N2CCc3c(c(C)nn3CC34CCC(N)(CC3)CC4)C2)c2cnn(C)c2n1 |  |  |  | 
 |  |  |  |  | Cc1cc(N2CCc3c(c(C)nn3CC34CCC(NC(=O)[C@@H]5COCCN5)(CC3)CC4)C2)c2cnn(C)c2n1 [MHV-370] | 1.2 | 0.074 | Dose-Dependent Effect | Dose-Dependent Effect
